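Cultured in 96-well plates, cells were exposed to test compound for 48 hours across five concentrations. GI50 marks 50% less growth. TGI is the concentration that stops growth completely.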
Experiments:
Assay in all cases: NCI tumour cell line growth inhibition, 48 h
DU-145 prostate = test system: DU-145 prostate
RXF 393 renal = test system: RXF 393 renal
SF-295 CNS = test system: SF-295 CNS
OVCAR-4 ovarian = test system: OVCAR-4 ovarian
COLO 205 colon = test system: COLO 205 colon
UACC-257 melanoma = test system: UACC-257 melanoma
U251 CNS = test system: U251 CNS
NCI/ADR-RES ovarian = test system: NCI/ADR-RES ovarian
NCI-H522 lung = test system: NCI-H522 lung
HOP-62 NSCLC = test system: HOP-62 NSCLC
RPMI-8226 leukemia = test system: RPMI-8226 leukemia
CCRF-CEM leukemia = test system: CCRF-CEM leukemia
HCC-2998 colon = test system: HCC-2998 colon
SK-MEL-28 melanoma = test system: SK-MEL-28 melanoma
MCF7 breast = test system: MCF7 breast
M14 melanoma = test system: M14 melanoma
OVCAR-5 ovarian = test system: OVCAR-5 ovarian
TK-10 renal = test system: TK-10 renal
ACHN renal = test system: ACHN renal
SF-268 CNS = test system: SF-268 CNS
UACC-62 melanoma = test system: UACC-62 melanoma
SK-MEL-5 melanoma = test system: SK-MEL-5 melanoma
SW-620 colon = test system: SW-620 colon
NCI-H23 lung = test system: NCI-H23 lung
IGROV1 ovarian = test system: IGROV1 ovarian
K-562 leukemia = test system: K-562 leukemia
LOX IMVI melanoma = test system: LOX IMVI melanoma
MOLT-4 leukemia = test system: MOLT-4 leukemia
CAKI-1 renal = test system: CAKI-1 renal
OVCAR-3 ovarian = test system: OVCAR-3 ovarian
KM12 colon = test system: KM12 colon
SF-539 CNS = test system: SF-539 CNS
SK-OV-3 ovarian = test system: SK-OV-3 ovarian
HT29 colon = test system: HT29 colon
OVCAR-8 ovarian = test system: OVCAR-8 ovarian
HCT-15 colon = test system: HCT-15 colon
PC-3 prostate = test system: PC-3 prostate
A549 NSCLC = test system: A549 NSCLC
SNB-75 CNS = test system: SNB-75 CNS
BT-549 breast = test system: BT-549 breast
T-47D breast = test system: T-47D breast
SNB-19 CNS = test system: SNB-19 CNS
NCI-H460 lung = test system: NCI-H460 lung
MDA-MB-435 = test system: MDA-MB-435
HS 578T breast = test system: HS 578T breast
EKVX NSCLC = test system: EKVX NSCLC
MDA-MB-231 breast = test system: MDA-MB-231 breast
HCT-116 colon = test system: HCT-116 colon
HOP-92 NSCLC = test system: HOP-92 NSCLC
SN12C renal = test system: SN12C renal
UO-31 renal = test system: UO-31 renal
A498 renal = test system: A498 renal
HL-60(TB) leukemia = test system: HL-60(TB) leukemia
NCI-H226 lung = test system: NCI-H226 lung
SK-MEL-2 melanoma = test system: SK-MEL-2 melanoma

Compound: COc1ccccc1NC(=O)c1ccc(NC2=C(Cl)C(=O)N(Cc3ccccc3)C2=O)cc1
- GI50 (DU-145 prostate): 2.01 µM
- TGI (DU-145 prostate): 28 µM
- GI50 (RXF 393 renal): 19.9 µM
- TGI (RXF 393 renal): 78.8 µM
- GI50 (SF-295 CNS): 18.2 µM
- TGI (SF-295 CNS): 63.4 µM
- GI50 (OVCAR-4 ovarian): 29.3 µM
- TGI (OVCAR-4 ovarian): > 100 µM
- GI50 (COLO 205 colon): 44.9 µM
- TGI (COLO 205 colon): > 100 µM
- GI50 (UACC-257 melanoma): 0.228 µM
- TGI (UACC-257 melanoma): 21.9 µM
- GI50 (U251 CNS): 29.3 µM
- TGI (U251 CNS): > 100 µM
- GI50 (NCI/ADR-RES ovarian): 15.2 µM
- TGI (NCI/ADR-RES ovarian): 48.1 µM
- GI50 (NCI-H522 lung): 5.09 µM
- TGI (NCI-H522 lung): 22.6 µM
- GI50 (HOP-62 NSCLC): 26.8 µM
- TGI (HOP-62 NSCLC): 63.5 µM
- GI50 (RPMI-8226 leukemia): 0.0257 µM
- TGI (RPMI-8226 leukemia): 0.363 µM
- GI50 (CCRF-CEM leukemia): 0.0777 µM
- TGI (CCRF-CEM leukemia): > 100 µM
- GI50 (HCC-2998 colon): 4.2 µM
- TGI (HCC-2998 colon): 15.4 µM
- GI50 (SK-MEL-28 melanoma): 30.3 µM
- TGI (SK-MEL-28 melanoma): > 100 µM
- GI50 (MCF7 breast): 7.77 µM
- TGI (MCF7 breast): 54 µM
- GI50 (M14 melanoma): 17.6 µM
- TGI (M14 melanoma): 40.4 µM
- GI50 (OVCAR-5 ovarian): 44.1 µM
- TGI (OVCAR-5 ovarian): > 100 µM
- GI50 (TK-10 renal): 40.3 µM
- TGI (TK-10 renal): 89.1 µM
- GI50 (ACHN renal): 33.4 µM
- TGI (ACHN renal): > 100 µM
- GI50 (SF-268 CNS): 25.4 µM
- TGI (SF-268 CNS): > 100 µM
- GI50 (UACC-62 melanoma): 0.877 µM
- TGI (UACC-62 melanoma): 24.5 µM
- GI50 (SK-MEL-5 melanoma): 16 µM
- TGI (SK-MEL-5 melanoma): 45.3 µM
- GI50 (SW-620 colon): 5.29 µM
- TGI (SW-620 colon): > 100 µM
- GI50 (NCI-H23 lung): 12 µM
- TGI (NCI-H23 lung): 25.9 µM
- GI50 (IGROV1 ovarian): 1.36 µM
- TGI (IGROV1 ovarian): 4.29 µM
- GI50 (K-562 leukemia): 4.21 µM
- TGI (K-562 leukemia): > 100 µM
- GI50 (LOX IMVI melanoma): 10.3 µM
- TGI (LOX IMVI melanoma): 35 µM
- GI50 (MOLT-4 leukemia): 3.31 µM
- TGI (MOLT-4 leukemia): > 100 µM
- GI50 (CAKI-1 renal): 1.48 µM
- TGI (CAKI-1 renal): 2.95 µM
- GI50 (OVCAR-3 ovarian): 10.2 µM
- TGI (OVCAR-3 ovarian): 22.6 µM
- GI50 (KM12 colon): 26.6 µM
- TGI (KM12 colon): 86 µM
- GI50 (SF-539 CNS): 16.6 µM
- TGI (SF-539 CNS): 41.2 µM
- GI50 (SK-OV-3 ovarian): > 100 µM
- TGI (SK-OV-3 ovarian): > 100 µM
- GI50 (HT29 colon): 36.8 µM
- TGI (HT29 colon): > 100 µM
- GI50 (OVCAR-8 ovarian): 2.27 µM
- TGI (OVCAR-8 ovarian): 32.9 µM
- GI50 (HCT-15 colon): 14.7 µM
- TGI (HCT-15 colon): 38.8 µM
- GI50 (PC-3 prostate): 0.976 µM
- TGI (PC-3 prostate): 5.75 µM
- GI50 (A549 NSCLC): 10.5 µM
- TGI (A549 NSCLC): 90.4 µM
- GI50 (SNB-75 CNS): 37.7 µM
- TGI (SNB-75 CNS): > 100 µM
- GI50 (BT-549 breast): 1.46 µM
- TGI (BT-549 breast): 11 µM
- GI50 (T-47D breast): 41.2 µM
- TGI (T-47D breast): > 100 µM
- GI50 (SNB-19 CNS): 48.9 µM
- TGI (SNB-19 CNS): > 100 µM
- GI50 (NCI-H460 lung): 33.4 µM
- TGI (NCI-H460 lung): > 100 µM
- GI50 (MDA-MB-435): 11.2 µM
- TGI (MDA-MB-435): 40.5 µM
- GI50 (HS 578T breast): 37.5 µM
- TGI (HS 578T breast): > 100 µM
- GI50 (EKVX NSCLC): 29.1 µM
- TGI (EKVX NSCLC): > 100 µM
- GI50 (MDA-MB-231 breast): 2.82 µM
- TGI (MDA-MB-231 breast): 16.3 µM
- GI50 (HCT-116 colon): 12.9 µM
- TGI (HCT-116 colon): 36.2 µM
- GI50 (HOP-92 NSCLC): 3.68 µM
- TGI (HOP-92 NSCLC): 45.4 µM
- GI50 (SN12C renal): 10.3 µM
- TGI (SN12C renal): 39.5 µM
- GI50 (UO-31 renal): 1.7 µM
- TGI (UO-31 renal): 3.2 µM
- GI50 (A498 renal): 27.8 µM
- TGI (A498 renal): 86.3 µM
- GI50 (HL-60(TB) leukemia): 3.36 µM
- TGI (HL-60(TB) leukemia): 43.5 µM
- GI50 (NCI-H226 lung): 6.84 µM
- TGI (NCI-H226 lung): 32.9 µM
- GI50 (SK-MEL-2 melanoma): 11.2 µM
- TGI (SK-MEL-2 melanoma): 29.9 µM
